One data set concerns the target T1, HsGUS (human GUS) (Homo sapiens, UniProt P08236).
T1 construct: HsGUS was prepared as described[37]; made in house
T1 sequence (P08236 23-651): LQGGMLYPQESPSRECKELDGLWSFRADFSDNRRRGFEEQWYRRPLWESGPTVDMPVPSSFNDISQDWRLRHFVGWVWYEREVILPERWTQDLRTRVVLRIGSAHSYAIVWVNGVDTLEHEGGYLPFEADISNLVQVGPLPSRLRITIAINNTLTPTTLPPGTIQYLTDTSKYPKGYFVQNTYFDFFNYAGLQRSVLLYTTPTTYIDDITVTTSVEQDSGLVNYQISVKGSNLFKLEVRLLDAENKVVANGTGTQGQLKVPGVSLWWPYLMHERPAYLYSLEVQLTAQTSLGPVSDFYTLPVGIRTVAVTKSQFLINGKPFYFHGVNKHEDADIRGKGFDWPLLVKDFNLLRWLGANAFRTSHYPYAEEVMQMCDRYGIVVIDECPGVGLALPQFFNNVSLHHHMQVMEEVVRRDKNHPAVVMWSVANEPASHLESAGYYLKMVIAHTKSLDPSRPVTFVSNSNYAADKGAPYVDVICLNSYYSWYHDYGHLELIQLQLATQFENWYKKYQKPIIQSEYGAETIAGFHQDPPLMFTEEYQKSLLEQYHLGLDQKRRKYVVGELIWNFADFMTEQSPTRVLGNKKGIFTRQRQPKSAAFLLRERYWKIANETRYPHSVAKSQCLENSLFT
As to the kind of experiment: GUS inhibition assay, hydrolysis of 4-methylumbelliferyl-β-glucuronide, HsGUS. It counts as biochemical. As to conditions: HsGUS; at 1 mM; read-out: percentage of inhibition.

In data set [1] the target is EcGUS (Escherichia coli GUS) (Escherichia coli, UniProt P05804). As to the kind of experiment: biochemical.
Data set [2] relates to BALB/c mice. As to the kind of experiment: In vivo diarrhea test (CPT-11). Also noted: species or system mouse; key to Diarrhea Score: 0: Normal stool; 1: Slight perianal staining of the coat; 2: Moderate perianal staining of the coat; 3: Watery mucosal-infused stool with severe perianal staining of the coat; Death.
The subject of the next data set is patients. The following applies: patients taking irinotecan; cited from earlier work.
In data set [3] the test system is BALB/c mice. As to the kind of experiment: Colon histology (hematoxylin and eosin) after oral gavage. It counts as in vivo, mouse. As to conditions: female BALB/c mice; oral gavage for 5 days; 3 at 37.5 mg per kg body weight, ASN03273363 at 65 mg.
The mark [4] stands for this setting: Day 6, individual mice (Box 1-8).
Setting [5] is: Day 7, individual mice (Box 1-8).
The mark [6] stands for this setting: Day 8, individual mice (Box 1-8).
Setting [7] is: Day 9, individual mice (Box 1-8).
[8] abbreviates: Day 10, individual mice (Box 1-8).
The mark [9] stands for this setting: Day 11, individual mice (Box 1-8).
Where [10] appears, read: Day 12, individual mice (Box 1-8).

Several values for one entry are separate records, joined by “and”; a condition that tells them apart may be missing. Equal values may be shown once. Entries after “also recorded” stand apart in the source; their conditions may differ.

EcGUS (Escherichia coli GUS), sequence (P05804 whole entry, the tested form may be a part): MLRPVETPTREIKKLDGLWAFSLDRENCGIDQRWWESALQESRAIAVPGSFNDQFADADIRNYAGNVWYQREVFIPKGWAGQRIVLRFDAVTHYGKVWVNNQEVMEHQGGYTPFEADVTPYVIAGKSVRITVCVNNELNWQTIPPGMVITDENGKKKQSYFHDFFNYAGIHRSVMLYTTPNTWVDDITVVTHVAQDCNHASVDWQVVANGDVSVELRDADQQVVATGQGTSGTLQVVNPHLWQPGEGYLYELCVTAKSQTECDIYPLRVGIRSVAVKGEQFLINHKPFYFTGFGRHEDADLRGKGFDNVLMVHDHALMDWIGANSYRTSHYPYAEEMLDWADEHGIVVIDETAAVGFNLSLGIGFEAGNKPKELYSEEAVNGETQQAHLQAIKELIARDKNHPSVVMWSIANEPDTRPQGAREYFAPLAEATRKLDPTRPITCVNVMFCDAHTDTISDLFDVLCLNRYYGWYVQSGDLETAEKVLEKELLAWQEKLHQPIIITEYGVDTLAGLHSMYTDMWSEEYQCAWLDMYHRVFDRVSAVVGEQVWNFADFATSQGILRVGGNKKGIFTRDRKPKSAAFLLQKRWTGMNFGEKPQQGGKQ

The term inhibition denotes the change of the read-out against control, counted positive when it falls. A word on the IC50: it is the concentration that inhibits the measured activity by half. On to `CCCCCC[C@@H]1NC[C@@H](O)[C@H](O)[C@H]1CO` [Compound 12], for which, on HsGUS (human GUS), the inhibition at 1000 µM is 0.6%. The same compound gave an IC50 in data set [1] of 24.9 µM.

As to `CCCCCC[C@@H]1NC[C@@H](O)[C@H](O)[C@H]1C(=O)O` [Inhibior 3], the “Diarrhea Score, mean” value in the data set on BALB/c mice [2] (Day 6, group mean) was found to be 0.0; with BALB/c mice [2] (Day 7, group mean), 0.0; with BALB/c mice [2] (Day 8, group mean), 0.0; with BALB/c mice [2] (Day 9, group mean) it was 0.0; with BALB/c mice [2] (Day 10, group mean), 0.0; with BALB/c mice [2] (Day 11, group mean) it was 0.0. In the data set with BALB/c mice [2] (Day 12, group mean), the “Diarrhea Score, mean” value is listed as 0.0. Also, the “Diarrhea Score” value in the data set on BALB/c mice [2] (setting [4]), in the data set on BALB/c mice [2] (setting [5]), with BALB/c mice [2] (setting [6]), in the data set on BALB/c mice [2] (setting [7]), in the data set on BALB/c mice [2] (setting [8]) and with BALB/c mice [2] (setting [9]) was 0 in each case. Besides, in the data set with BALB/c mice [2] (setting [10]), the “Diarrhea Score” value was 0.

Turning to `CCC[C@@H]1NC[C@@H](O)[C@H](O)[C@H]1CO` [Compound 11], the inhibition at 1000 µM on HsGUS (human GUS) was 4.5%. This compound also registered an IC50 in data set [1] of 272 µM.

With `CCc1c2c(nc3ccc(OC(=O)N4CCC(N5CCCCC5)CC4)cc13)-c1cc3c(c(=O)n1C2)COC(=O)[C@]3(O)CC` [CPT-11, Irinotecan], the “patients at high risk of death owing to neutropenia” value in the data set on patients is reported as ~ 3.5%. Moreover, the patients becoming dehydrated in the data set on patients is listed as ~ 10%. In the data set with patients, the “patients suffering from severe delayed diarrhea” value was 87%. The diarrhea entry with BALB/c mice [2] (BALB/c mice, CPT-11 only, 30 mg per kg daily, 10 days) is “developed diarrhea on day 7, until they reached a peak on day 11; also recorded: severe diarrhea from days 7–11”. Also, the “Diarrhea Score, mean” value was found to be 0.0 with BALB/c mice [2] (Day 6, group mean); 0.0 in the data set with BALB/c mice [2] (Day 7, group mean); 0.25 with BALB/c mice [2] (Day 8, group mean); 0.429 in the data set on BALB/c mice [2] (Day 9, group mean); 1.6 in the data set on BALB/c mice [2] (Day 10, group mean); 2.3 with BALB/c mice [2] (Day 11, group mean). Besides, the “Diarrhea Score, mean” value in the data set on BALB/c mice [2] (Day 12, group mean) was 2.1. Besides, the “Diarrhea Score” value in the data set with BALB/c mice [2] (setting [4]) is 0; with BALB/c mice [2] (setting [5]) it was 0; with BALB/c mice [2] (setting [6]) it was 0 and 2; in the data set on BALB/c mice [2] (setting [7]), 0 and D and 3; in the data set with BALB/c mice [2] (setting [8]) it was 0 and D and 3 and 2; in the data set on BALB/c mice [2] (setting [9]), 1 and D and 3 and 2. Also, the “Diarrhea Score” value with BALB/c mice [2] (setting [10]) was 3 and 0 and D. For the same compound, the “Mean ± SEM of Diarrhea score” value turned out to be 0.0 ± 0.0 N=7 with BALB/c mice [2] (day 9, Welch's unpaired t-test table); 0.0 ± 0.0 N=7 with BALB/c mice [2] (day 10, Welch's unpaired t-test table); 0.2857 ± 0.1844 N=7 with BALB/c mice [2] (day 11, Welch's unpaired t-test table); 0.3333 ± 0.2108 N=6 in the data set with BALB/c mice [2] (day 12, Welch's unpaired t-test table).

For the compound `CCOc1ccc(NC(=S)N(CCO)Cc2cc3cc(C)cc(C)c3[nH]c2=O)cc1` [ASN03273363, reference compound], in the data set with BALB/c mice [3], the “health of the epithelial layer and intestinal glandular structure (hematoxylin and eosin staining)” value is recorded as “neither compound affected the health of the epithelial layer or the intestinal glandular structure”.

Take `CCCCCCCCC[C@@H]1NC[C@@H](O)[C@H](O)[C@H]1CO` [Compound 13]: the inhibition at 1000 µM at HsGUS (human GUS) was -0.5%. Moreover, the IC50 in data set [1] worked out at 3.6 µM.

The values are drawn from article PMC7933434, “Entropy-driven binding of gut bacterial β-glucuronidase inhibitors ameliorates irinotecan-induced toxicity” (Communications Biology, 2021).
